Experimental data from publication PMC5318439, “The Novel Toll-Like Receptor 2 Agonist SUP3 Enhances Antigen Presentation and T Cell Activation by Dendritic Cells” (Frontiers in Immunology, 2017).
Where a SMILES comes first, the peptide text is derived from it. The star is where a group is joined. X1 = CCCCCCCCCCCCCCNC(=O)OC[C@H](C*)OC(=O)NCCCCCCCCCCCCCC; Palmitoyl = CCCCCCCCCCCCCCCC(=O)*

Legend:
[1] = test system: OVA-expressing B16 melanoma cells (B16-OVA); test: B16-OVA melanoma lung metastasis tumor model after immunization; assay type: in vivo, mice; details: immunized OCS + 2 nmol per mouse for 30 days, B16-OVA 5 × 10^5 cells i.v., 16 days after challenge; vs OCS alone or OCS with Pam3
From the text: Tumor model was applied as previously described with some modifications ([42]). Briefly, mice were immunized by OCS alone, OCS with Pam3 (2 nmol per mouse), or OCS with SUP3 (2 nmol per mouse) for 30 days. Then mice were i.v. injected with OVA-expressing B16 melanoma cells (B16-OVA) (5 × 10^5 cells per mouse). After 16 days, the numbers of metastatic tumors in lung were counted.
Figure 2 SUP3 induced more vigorous cytotoxic T lymphocytes (CTLs) responses than Pam3CSK4 without excessive production of inflammatory cytokines in vivo. […] The percentages of pentamer positive cells (CD19^− CD3^+ CD8^+ SIINFEKL/H-2Kb-Pentamer^+) in spleens, i.e., the OVA-specific CD8^+ T cells, were determined by flow cytometry (A) and the statistic calculation is presented in (B). […] (C,D) Mice were immunized as in (A) for 30 days, then inoculated with OVA-expressing B16 melanoma cells (B16-OVA) (5 × 10^5 cells per mouse) by i.v. injection and analyzed for metastatic tumor formation in the lung 16 days after inoculation. […] (E) Mice were i.v. injected with SUP3 (2 nmol per mouse), Pam3 (2 nmol per mouse), or lipopolysaccharide (LPS) (1 µg per mouse) for 1 h, the serum was collected, and the levels of different cytokines were determined by ELISA. “n.d.” indicates “not detected.” *p < 0.05, **p < 0.01. […]

CD11b^+ cDCs = test: Antigen presentation by CD11b+ cDCs to OT-II CD4+ T cells in vitro; assay type: cell-based, mice; details: CD11b+ cDCs stimulated with 200 nM
Procedure: Antigen presentation assays were performed as previously described ([38]). Briefly, ovalbumin (OVA) (10 µg/mL; Sigma A7641) pulsed cDCs were stimulated with or without TLR agonists for 4 h. OT-I CD8^+ T cells and OT-II CD4^+ T cells were purified and then labeled by carboxyfluorescein diacetate succinimidyl ester (CFSE) (1 µM; Molecular Probes C34554). CD8^+ cDCs were cocultured with OT-I CD8^+ T cells for 60 h, whereas CD11b^+ cDCs were cocultured with OT-II CD4^+ T cells for 96 h, both in the presence of granulocyte-macrophage colony-stimulating factor (GM-CSF) (20 ng/mL; Peprotech 315-03). Proliferated OT-I or OT-II T cells were defined as diluted CFSE signal analyzed by flow cytometry. The numbers of T cells were counted by AccuCheck counting beads (Molecular Probes PCB100). […] Cells were washed twice with cold medium and analyzed by flow cytometry.
Figure 5 SUP3 enhanced antigen presentation ability of CD11b^+ conventional dendritic cells (cDCs) and production of antibodies against thymus-dependent (TD) antigens. […] Three days after immunization, division of OT-II CD4^+ T cells from inguinal lymph nodes were analyzed by flow cytometry (B). Absolute numbers of proliferated OT-II CD4^+ T cells were calculated in (C). […] Cells were then thoroughly washed and cocultured with CFSE-stained OT-II CD4^+ T cells for 4 days and analyzed by flow cytometry. […]

Compound: CCCCCCCCCCCCCCCC(=O)N[C@@H](CSC[C@@H](COC(=O)NCCCCCCCCCCCCCC)OC(=O)NCCCCCCCCCCCCCC)C(=O)NCC(=O)N[C@@H](CCCCN)C(=O)N[C@@H](CCCCN)C(=O)N[C@@H](CCCCN)C(=O)O [SUP3, (2S,5S,8S,14R,18R)-2,5,8-tris(4-aminobutyl)-4,7,10,13,21-pentaoxo-14-palmitamido-18-((tetradecylcarbamoyl)oxy)-20-oxa-16-thia-3,6,9,12,22-pentaazahexatriacontan-1-oic acid] (Palmitoyl-C(X1)GKKK-OH)
- number of metastatic tumors in the lungs [1]: markedly reduced number of tumors in the lungs
- OT-II CD4+ T cell proliferation in vitro (CD11b^+ cDCs): enhanced OT-II CD4^+ T cell proliferation
